Test results: the NIST ThermoML archive (doi:10.1021/je900596d)

Conditions: Vibrating tube method

FC(F)=C(F)C(F)(F)F [hexafluoropropene]
Conditions	mass density [kg/m3]
348.12 K, 1780.6 kPa, Fluid (supercritical or subcritical phases)	126.81
348.12 K, 1804.3 kPa, Fluid (supercritical or subcritical phases)	129.36
348.12 K, 1829.7 kPa, Fluid (supercritical or subcritical phases)	132.19
348.12 K, 1851.6 kPa, Fluid (supercritical or subcritical phases)	134.57
348.12 K, 1872.9 kPa, Fluid (supercritical or subcritical phases)	137.09
348.12 K, 1894.9 kPa, Fluid (supercritical or subcritical phases)	139.69
348.12 K, 1917.6 kPa, Fluid (supercritical or subcritical phases)	142.36
348.12 K, 1939.9 kPa, Fluid (supercritical or subcritical phases)	144.88
348.12 K, 1967.9 kPa, Fluid (supercritical or subcritical phases)	148.35
348.12 K, 1992.7 kPa, Fluid (supercritical or subcritical phases)	151.5
348.12 K, 2016.1 kPa, Fluid (supercritical or subcritical phases)	154.47
348.12 K, 2044.1 kPa, Fluid (supercritical or subcritical phases)	158.31
348.12 K, 2068.5 kPa, Fluid (supercritical or subcritical phases)	161.51
348.12 K, 2096.5 kPa, Fluid (supercritical or subcritical phases)	165.49
348.12 K, 2143.5 kPa, Fluid (supercritical or subcritical phases)	172.38
348.12 K, 2192.1 kPa, Fluid (supercritical or subcritical phases)	180.05
348.12 K, 2212.1 kPa, Fluid (supercritical or subcritical phases)	183.28
348.12 K, 2238.5 kPa, Fluid (supercritical or subcritical phases)	187.82
348.12 K, 2266 kPa, Fluid (supercritical or subcritical phases)	192.69
348.12 K, 2288.1 kPa, Fluid (supercritical or subcritical phases)	196.82
348.12 K, 2310.2 kPa, Fluid (supercritical or subcritical phases)	201.01
348.12 K, 2332.6 kPa, Fluid (supercritical or subcritical phases)	205.6
348.12 K, 2354 kPa, Fluid (supercritical or subcritical phases)	210.08
348.12 K, 2375.5 kPa, Fluid (supercritical or subcritical phases)	214.74
348.12 K, 2397.3 kPa, Fluid (supercritical or subcritical phases)	219.85
348.12 K, 2419.9 kPa, Fluid (supercritical or subcritical phases)	225.48
348.12 K, 2442.3 kPa, Fluid (supercritical or subcritical phases)	231.34
348.12 K, 2470.6 kPa, Fluid (supercritical or subcritical phases)	239.59
348.12 K, 2472.8 kPa, Fluid (supercritical or subcritical phases)	240.22
348.12 K, 2475.3 kPa, Fluid (supercritical or subcritical phases)	241.04
348.12 K, 2478 kPa, Fluid (supercritical or subcritical phases)	241.76
348.12 K, 2479.4 kPa, Fluid (supercritical or subcritical phases)	242.23
348.12 K, 2481.5 kPa, Fluid (supercritical or subcritical phases)	242.88
348.12 K, 2484.1 kPa, Fluid (supercritical or subcritical phases)	243.75
348.12 K, 2485.5 kPa, Fluid (supercritical or subcritical phases)	244.17
348.12 K, 2487.8 kPa, Fluid (supercritical or subcritical phases)	244.94
348.12 K, 2490.1 kPa, Fluid (supercritical or subcritical phases)	245.8
348.12 K, 2493.8 kPa, Fluid (supercritical or subcritical phases)	247.53
348.12 K, 2495.7 kPa, Fluid (supercritical or subcritical phases)	248.38
348.12 K, 2497.4 kPa, Fluid (supercritical or subcritical phases)	248.67
348.12 K, 2498.8 kPa, Fluid (supercritical or subcritical phases)	250.42
348.12 K, 2499.7 kPa, Fluid (supercritical or subcritical phases)	251.97
348.12 K, 2500.9 kPa, Fluid (supercritical or subcritical phases)	254.86
348.12 K, 2501.9 kPa, Fluid (supercritical or subcritical phases)	260.28
348.12 K, 2502.8 kPa, Fluid (supercritical or subcritical phases)	268.19
348.16 K, 2506.4 kPa, Liquid	959.6
348.16 K, 2507.7 kPa, Liquid	959.78
348.16 K, 2509 kPa, Liquid	959.97
348.16 K, 2510.7 kPa, Liquid	960.12
348.16 K, 2511.1 kPa, Liquid	960.28
348.16 K, 2513.5 kPa, Liquid	960.38
348.16 K, 2516.3 kPa, Liquid	960.72
348.16 K, 2517 kPa, Liquid	960.83
348.16 K, 2518.6 kPa, Liquid	961.02
348.16 K, 2520.1 kPa, Liquid	961.1
348.16 K, 2520.8 kPa, Liquid	961.16
348.16 K, 2522.6 kPa, Liquid	961.35
348.16 K, 2523.5 kPa, Liquid	961.75
348.16 K, 2525.5 kPa, Liquid	961.71
348.16 K, 2526.1 kPa, Liquid	961.8
348.16 K, 2530 kPa, Liquid	962.41
348.16 K, 2532.2 kPa, Liquid	962.81
348.16 K, 2535.5 kPa, Liquid	963.11
348.16 K, 2538.4 kPa, Liquid	963.1
348.16 K, 2542.3 kPa, Liquid	963.6
348.16 K, 2544.8 kPa, Liquid	963.72
348.16 K, 2547.3 kPa, Liquid	963.99
348.16 K, 2549.5 kPa, Liquid	964.46
348.16 K, 2554.5 kPa, Liquid	964.95
348.16 K, 2561 kPa, Liquid	965.66
348.16 K, 2568.5 kPa, Liquid	966.39
348.16 K, 2574.8 kPa, Liquid	967.01
348.16 K, 2581.7 kPa, Liquid	967.68
348.16 K, 2588.5 kPa, Liquid	968.36
348.16 K, 2595 kPa, Liquid	968.97
348.16 K, 2601.2 kPa, Liquid	969.69
348.16 K, 2614.7 kPa, Liquid	970.9
348.16 K, 2627.6 kPa, Liquid	972.33
348.16 K, 2633.8 kPa, Liquid	972.9
348.16 K, 2640.7 kPa, Liquid	973.53
348.16 K, 2654.7 kPa, Liquid	974.76
348.16 K, 2667.6 kPa, Liquid	976.02
348.16 K, 2680.1 kPa, Liquid	977.1
348.16 K, 2693.1 kPa, Liquid	978.18
348.16 K, 2706.1 kPa, Liquid	979.32
348.16 K, 2718.8 kPa, Liquid	980.44
348.16 K, 2730.9 kPa, Liquid	981.5
348.16 K, 2744.5 kPa, Liquid	982.55
348.16 K, 2756.9 kPa, Liquid	983.71
348.16 K, 2770.2 kPa, Liquid	984.59
348.16 K, 2782.7 kPa, Liquid	985.9
348.16 K, 2796.7 kPa, Liquid	986.93
348.16 K, 2809.4 kPa, Liquid	987.97
348.16 K, 2835.1 kPa, Liquid	989.69
348.16 K, 2847.5 kPa, Liquid	990.63
348.16 K, 2861.9 kPa, Liquid	991.98
348.16 K, 2875.4 kPa, Liquid	992.69
348.16 K, 2888.5 kPa, Liquid	993.69
348.16 K, 2902.4 kPa, Liquid	994.77
348.16 K, 2923.1 kPa, Liquid	996.32
348.16 K, 2943.1 kPa, Liquid	997.63
348.16 K, 2969.1 kPa, Liquid	999.28
348.16 K, 2994.8 kPa, Liquid	1001.06
348.16 K, 3015.4 kPa, Liquid	1002.63
348.16 K, 3036.5 kPa, Liquid	1004.18
348.16 K, 3061.5 kPa, Liquid	1005.54
348.16 K, 3081.9 kPa, Liquid	1006.76
348.16 K, 3102.2 kPa, Liquid	1008.02
348.16 K, 3129.1 kPa, Liquid	1009.6
348.16 K, 3135.2 kPa, Liquid	1009.88
348.16 K, 3142.1 kPa, Liquid	1010.13
348.16 K, 3154.2 kPa, Liquid	1010.88
348.16 K, 3176.2 kPa, Liquid	1012.35
348.16 K, 3202.5 kPa, Liquid	1013.88
348.16 K, 3223.6 kPa, Liquid	1015.07
348.16 K, 3244.1 kPa, Liquid	1016.31
348.16 K, 3266.6 kPa, Liquid	1017.56
348.16 K, 3287 kPa, Liquid	1018.73
348.16 K, 3310.2 kPa, Liquid	1020.02
348.16 K, 3316.2 kPa, Liquid	1020.28
348.16 K, 3323.1 kPa, Liquid	1020.54
348.16 K, 3330.6 kPa, Liquid	1020.95
348.16 K, 3337.3 kPa, Liquid	1021.47
348.16 K, 3343.7 kPa, Liquid	1021.72
348.16 K, 3351.1 kPa, Liquid	1022.04
348.16 K, 3359.3 kPa, Liquid	1022.61
348.16 K, 3365.4 kPa, Liquid	1022.8
348.16 K, 3373.8 kPa, Liquid	1023.35
348.16 K, 3380 kPa, Liquid	1023.59
348.16 K, 3386.2 kPa, Liquid	1023.86
348.16 K, 3392.5 kPa, Liquid	1024.46
348.16 K, 3400.2 kPa, Liquid	1024.64
348.16 K, 3423.6 kPa, Liquid	1025.65
